Experimental data reported in PubChem BioAssay AID1159560 (GlaxoSmithKline (GSK), 2015).
pIC50: −log10 of the molar value. The source made the active and inactive calls. The rule behind the calls is not given here.

tested on: Leishmania donovani growth inhibition; assay: antileishmanial activity against L. donovani parasites (AID 1159560);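 note: parasites exposed to compound for 72 h before the viability read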

Row | Compound | pIC50 | IC50
1 | Nc1nc(-c2ccccn2)nc(-n2nc(-c3ccccc3)cc2N)n1 | 5.70 | 
2 | Cc1nn(C2CCS(=O)(=O)C2)c(C)c1CN(C)C(=O)C=Cc1sc2ccccc2c1Cl (stereo not drawn) | 4.89 | 
3 | CCCC(=O)N(Cc1ccccn1)c1nc2ccccc2s1 | 5.10 | 
4 | c1cncc(CN(Cc2ccco2)Cc2cn[nH]c2-c2cccs2)c1 | 4.49 | 
5 | O=C(NCC1CCCCC1)c1cc(=O)c2ccccc2o1 | 5.30 | 
6 | COc1cccc(-c2cc(C(F)(F)F)nc(-n3ccc([N+](=O)[O-])n3)n2)c1 |  | > 50 µM (inactive)
7 | Cc1cc(C)n(-c2nc(NC(C)C)nc(NC(C)(C)C)n2)n1 | 5.49 | 
8 | COc1ccc(C2CC(c3ccccc3Cl)=NN2C(=O)CNC(=O)C2CCCC2)cc1 (stereo not drawn) |  | > 50 µM (inactive)
9 | Cc1ccccc1NS(=O)(=O)c1ccc2[nH]cc(C(=O)NC3CCCC3)c(=O)c2c1 |  | > 50 µM (inactive)
10 | O=C(Nc1ccc(C(=O)N2CCCC2c2ccc3c(c2)OCCCO3)cc1)c1ccco1 (stereo not drawn) | 6.10 | 
11 | N#Cc1cc(N2CCCC2=O)ccc1Sc1ccccc1CO |  | > 50 µM (inactive)
12 | Cc1nc2c(-c3cccs3)c(C)nn2c(NCCO)c1C |  | > 50 µM (inactive)
13 | O=C(Nc1cccc(F)c1)N1CCC(Oc2cccc(-c3cccnc3)c2)CC1 | 6.30 | 
14 | COc1ccc(-c2nc3ncccc3o2)cc1NC(=O)c1cccs1 | 5.30 | 
15 | Cc1nccn1C1CCCN(C(=O)c2cc3c(F)cccc3s2)C1 (stereo not drawn) | 5.30 | 
16 | c1ccc(-c2nc(NCc3ccco3)c3ccccc3n2)nc1 | 5.49 | 
17 | OCC1CCCCN1c1cc(-c2ccccn2)nc(Nc2ccccc2)n1 (stereo not drawn) | 5.49 | 
18 | Cc1cc(=O)n2nc(Oc3ccc(C#N)cc3Cl)sc2n1 | 4.89 | 
19 | COc1cccc(Nc2cc(C)nc(-c3ccccn3)n2)c1 | 5.40 | 
20 | COCc1cc(Nc2ccc(Cl)cc2)nc(-c2ccccn2)n1 | 5.60 | 
21 | CS(=O)(=O)N1CCC(Nc2ncc(Br)c(Nc3cccc(F)c3C(N)=O)n2)CC1 | 7.00 | 
22 | c1ccc2[nH]c(-c3ccc(N4CCCC4)nc3)nc2c1 | 5.30 | 
23 | O=C(NCCc1nc(-c2ccc(F)c(F)c2)n[nH]1)C1CCCCC1 |  | > 50 µM (inactive)
24 | CN(Cc1nnnn1C1CCN(Cc2ccc(-n3ccnc3)cc2)CC1)c1ccc(F)cc1F |  | > 50 µM (inactive)
25 | COc1ccc(S(=O)(=O)Nc2ccc(CN3CCN(C(=O)c4cccc(C#N)c4)CC3)cc2)cc1 | 4.49 | 
26 | Cc1ccc(CNC2CCN(C[C@@H]3Cn4c(=O)ccc5ccc(=O)n3c54)CC2)cc1F |  | > 50 µM (inactive)
27 | c1ccc2sc(Nc3nc4ncccc4[nH]3)nc2c1 | 5.80 | 

Row | Compound | pIC50 | IC50
28 | CCC(=O)Nc1ccccc1C(=O)Nc1ccccn1 |  | > 50 µM (inactive)
29 | Cc1ccc2c(c1)SC(C(=O)Nc1n[nH]c(-c3ccccn3)n1)C2 (stereo not drawn) | 5.20 | 
30 | O=C(NCCc1cccnc1)c1ccc(-c2ccccc2F)o1 | 4.70 | 
31 | COc1ccc(NC(=O)c2ccc(NC(=O)CN(c3ccccc3C)S(C)(=O)=O)cc2)cc1 |  | > 50 µM (inactive)
32 | CC(=O)Nc1ccc(-c2cnc(N)c(-c3nc4ccc(F)cc4[nH]3)c2)cc1 | 5.20 | 
33 | CCOc1ccc2nc(NC(=O)c3ccc([N+](=O)[O-])s3)sc2c1 | 5.60 | 
34 | O=c1oc2ccccc2n1C1CCN(Cc2ccccc2-c2cccnc2)CC1 |  | > 50 µM (inactive)
35 | O=C(CCCn1cnc([N+](=O)[O-])n1)Nc1cccc(Cl)c1 |  | > 50 µM (inactive)
36 | Cc1nn(-c2nc(N)nc(-c3ccccn3)n2)c(C)c1Cc1ccccc1 | 5.30 | 
37 | O=C(Nc1ccc(C(F)(F)F)cc1)Nc1cccc([N+](=O)[O-])c1 | 5.10 | 
38 | COc1ccc(-c2cnc(NC(=O)c3ccc(F)cc3)n2C)cc1 | 5.49 | 
39 | Cn1nc([N+](=O)[O-])nc1N1CCCCC1 |  | > 50 µM (inactive)
40 | O=C(NCCc1csc(-c2cccc(F)c2)n1)c1ccco1 |  | > 50 µM (inactive)
41 | CN(C)CCN(C)Cc1ccc(F)cc1NS(=O)(=O)c1ccc(Cl)c(Cl)c1 | 5.10 | 
42 | N#Cc1cccc(Nc2nccc(N3CCC(NS(=O)(=O)c4cccc(C#N)c4)CC3)n2)c1 | 6.20 | 
43 | COc1ccc(C2CC(c3ccc(NS(C)(=O)=O)cc3)=NN2C(=O)c2cccs2)cc1OC (stereo not drawn) | 4.89 | 
44 | O=C(c1cccc(Nc2ncc(-c3ccc4c(c3)OCO4)cn2)c1)N1CCOCC1 | 5.70 | 
45 | O=C1NCCn2ccc(Nc3nc(NC4CCC(O)CC4)ncc3Cl)c21 (stereo not drawn) | 5.60 | 
46 | Cc1cnc(Nc2cc(Cc3ccccc3)nc(NC3CCC(O)CC3)n2)s1 (stereo not drawn) | 6.10 | 
47 | COc1ccc(Nc2nccc(N(C)c3n[nH]c4c(F)cccc34)n2)cc1S(C)(=O)=O | 4.60 | 
48 | CCS(=O)(=O)Nc1ccc(C2=NN(C(=O)c3cccs3)C(c3ccccc3OC)C2)cc1 (stereo not drawn) | 5.89 | 
49 | Cc1ccc(NC(=O)c2ccnc(N3CCCC3)c2)cc1-c1ccsc1C(N)=O |  | > 50 µM (inactive)
50 | O=C(CN1CCN(S(=O)(=O)c2cccc([N+](=O)[O-])c2)CC1)Nc1ccc(Oc2ccccc2)cc1 | 5.40 | 
51 | CC(Cn1ccnc1)NC(=O)COc1ccc(Cl)c(Cl)c1 (stereo not drawn) |  | > 50 µM (inactive)
52 | c1ccc2c(CCOc3nccnc3-c3ccncc3)c[nH]c2c1 | 5.30 | 
53 | N#Cc1cccc(CN2CCC(c3nc(-c4ccc(C(F)(F)F)nc4)no3)CC2)c1 | 4.89 | 
